Measurements as given in US7879835B2 (Korea Research Institute of Chemical Technology, priority 2004, dated 2011).

Key:
[1] = In vitro pharmacokinetics: metabolic stability in liver microsome; format: in vitro ADME; settings: human liver microsome 1 mg/ml, 20 μM compound; for half-life at 20 µM: liver microsomes
Description: Metabolic stabilities of the compounds of the Examples were examined by employing microsome samples prepared from the human liver.
Each 20 μM of the compounds were reacted with 1 mg/ml of liver microsome and the half-lives and one-hour stabilities of the compounds were determined.

MG-63 cells = assay: Cytotoxicity test against osteoblast (MTT); format: cell-based, human
Description: In order examine the toxicities of the compounds of the Examples against osteoclast pregenitors, pregenitor cells were aliquotted onto a 96-well microplate at a density of 2×10^5 cells per well, treated with 2, 4 and 8 μM of the test compounds, respectively, and cultured for 48 hrs in α-MEM supplemented with 20 ng/ml of M-CSF (Peprotech, USA) using 37° C. incubator (5% CO2). At 3 hrs before the culture was finished, 50 μl of MTT (3-(4,5-dimethylthiazol-2-yl)-2,5-diphenyltetrazolium bromide) solution (50 μg/ml) was added to each well. Upon completion of the cell culture, the supernatant was removed, and the precipitated dye was reacted with 100 μl of isopropanol/0.04 N HCl at room temperature for 30 min to dissolve it. The absorbances of the wells were measured at 550 nm, and the relative absorbance of each well relative to that of the control (set as 100) is shown in Table 6.
In order to examine the toxicity of the compounds of the Examples against osteoblasts, human osteosarcoma-derived cell line, MG-63 (ATCC No. CRL-1427) cells were treated with 0.1, 0.3, 1.0 and 3.0 μM of the compounds of the Examples, and cultured in DMEM supplemented with 10% FBS (fetal bovine serum).

[2] = tested on: osteoclast (TRAP-positive multinuclear cell) formation; assay: Inhibitory effect on osteoclast formation (TRAP staining); format: cell-based, mice; settings: compared to control; for inhibition at 0.1 µM / inhibition at 0.3 µM / inhibition at 1 µM / inhibition at 3 µM: Mus musculus, Osteoclast, read-out: Osteoclast formation inhibitory effects (%); for inhibition at 0.1 µM: 0.1 μM (Table 4b); for inhibition at 0.3 µM: 0.3 μM (Table 4b); for inhibition at 1 µM: 1 μM (Table 4b); for inhibition at 3 µM: 3 μM (Table 4b); for Osteoclast formation inhibitory effects (%): 8 days culture with M-CSF and RANKL
Description: The inhibitory activities of the alpha-arylmethoxyacrylate derivatives prepared in the above Examples on the proliferation of osteoclasts were examined as follows.
First, a bone marrow sample containing osteoclast pregenitor cells was isolated as follows. After sacrificing 7 to 9 week-old female mice by cervical dislocation, femur and tibia were excised aseptically while removing soft tissues attached thereto, After cutting both ends of the long bones, 1 ml of an enzyme solution containing 0.1% collagenase (Gibco), 0.05% trypsin and 0.5 mM EDTA (Gibco) was injected into the bone marrow cavity at one end using a syringe with a 26-gauge needle, and the bone marrow was then collected. After stirring the recovered bone marrow for 30 min, the precipitated bone marrow cells were collected, and cultured in α-minimum essential medium (α-MEM) supplemented with 10% FBS for 24 hrs. Then, non-adherent cells, which are osteoclast pregenitors, were aliquoted onto a culture plate at a density of 2×10^5 cells per well, and cultured for 8 days in α-MEM supplemented with 20 ng/ml of macrophage-colony stimulating factor (M-CSF, Peprotech, USA), 30 ng/ml RANKL (Peprotech, USA), and 0.3, 1.0 or 3 μM of the compounds of the Examples. Control cells were cultured at the same condition except not adding the compounds of the Examples.
After cell culture for 8 days, the adherent cells were washed with PBS and fixed with citrate-acetate-formaldehyde for 5 min. The fixed cells were incubated at 37° C. for 1 hr in acetate buffer (pH 5.0) containing naphthol AS-BI phosphate, fast Garnet GBC solution and 7 mM tartrate buffer (pH 5.0) to conduct TRAP (tartrate-resistant acid phosphatase) staining.

[3] = In vivo pharmacokinetics using female mice (serum concentration, HPLC); settings: I.V.; for clearance / Half-life / Vd: mouse, serum, iv; for clearance: read-out: CL (clearance) (converted); for Half-life: read-out: Half-life (converted); for Vd: read-out: Vd (volume of distribution)
Description: Female mice each weighing […] were divided into groups of 5 mice each. The mice were anesthetized with ether, catheterized in their femoral artery and vein, respectively, and administered with 0.5 mg/kg body weight of compounds 234 and 274, and 5 mg/kg body weight of compounds 388, 404 and 415, respectively, via intravenous injection. Alternatively, 15 mg/kg body weight of compound 274 and 10 mg/kg body weight of compound 234 were orally administered to the mice.
At 0, 5, 10, 15 and 30 minutes and 1, 2, 4, 6, 9 and 12 hours after the intravenous injection, or at 0, 10, 20 and 40 minutes and 1, 2, 4, 6, 9 and 12 hours after the oral administration, 0.3 ml blood samples were taken from the mice through femoral artery. The blood samples were kept on an ice bath for 30 minutes and centrifuged at 3,000 rpm for 10 minutes to obtain a supernatant (serum). The supernatant samples were stored at −20° C.
Standard solution: Compounds 234, 274, 388, 404 and 415 were respectively dissolved in methanol to a concentration of 1 mg/ml to obtain stock solutions. The stock solutions were diluted with methanol to obtain standard solutions having concentrations of 40, 20, 10, 2, 1, 0.5, 0.2, 0.05 and 0.02 μg/ml, respectively.
Standard calibration curve: A stand calibration curve was prepared by employing calibration concentrations of 0.002, 0.005, 0.02, 0.05, 0.1, 0.2, 1, 2 and 4 μg/ml.
10 μl each of the standard solutions prepared above was added to 100 μl of normal serum sample and diluted 10 times. 250 μl of acetonitrile was added to the resulting dilution and the mixture was centrifuged for 10 minutes to obtain a supernatant. 300 μl of the supernatant was dried by evaporation under a nitrogen atmosphere and reconstituted by adding 50 μl of methanol. 20 μl of the resulting solution was analyzed by HPLC to prepare a standard calibration curve. HPLC was performed with Shimadzu ODS2 column (4.6×250 mm, 5 μm by employing a mixture of methanol/water (90/10 (v/v)) as the mobile phase at a flow rate of 1.2 ml/min, and measuring the absorbance at 240 nm.
Extraction: 100 μl of the serum sample obtained in (4-2-1) was put into a 1 ml microtube and 10 μl of methanol was added thereto. 250 μl of acetonitrile was added to the microtube and the mixture was centrifuged for 10 minutes to obtain a supernatant. 300 μl of the supernatant was dried by evaporation under a nitrogen atmosphere and reconstituted by adding 50 μl of methanol. 20 μl of the resulting solution was analyzed by the HPLC method as above.
Average concentrations of the compounds in the serum samples were plotted in a semi-log scale against the time lapsed after the administration, and the pharmacokinetic parameters were determined as a non-compartment open model by employing WinNonlin® program (Pharsight Corporation).

osteoclasts = assay: Inhibitory effect on resorption activity of osteoclast (resorption pit area on calcium phosphate-coated plate); format: cell-based, mice; settings: compared to control
Description: After finishing culture, the plate was washed with distilled water, and 50 μl/well of 5% sodium hypochlorite was added to the plate. The plate was let alone for 5 min, washed again with distilled water to remove the adherent cells, and dried at room temperature. Then, the area of formed resorption pits was calculated by means of Image Pro Plus software (Media Cybernetics Ver. 3.0).

rats = assay: In vivo acute toxicity test (LD50); settings: single dose, 2 weeks observation
Description: In order to determine the acute toxicities of the compounds prepared in Examples, 6-week old specific pathogen-free (SPF) rats each weighing […] were divided into groups of 10 rat each.
In case of subcutaneous administration, each of the compounds was dissolved in 5% PEG400 solution to a concentration of 20 mg/ml, the resulting solution was serially diluted with 5% PEG400 solution to concentrations of 5, 2.5, 1.25 and 0.625 mg/ml, and the dilutions were subcutaneously injected once to the rats at a dose of 10 ml/kg body weight.
In case of oral administration, each of the compounds was dissolved in soybean oil to a concentration of 180 mg/ml, the resulting solution was serially diluted with soybean oil to concentrations of 80, 20 and 5 mg/ml, and the dilutions were orally administered once to the rats at a dose of 20 ml/kg body weight. […]
During 2 weeks after the administration of the compounds, the death rate, clinical symptoms and weight changes of the rats were observed, and hematological and biochemical tests on blood samples were performed. Then, the rats were sacrificed and the internal organs were visually examined to check any abnormal signs in the organs of chest and abdomen.

half-life at 20 µM [1] [min]	Structure (SMILES)	relative absorbance (MTT) relative to control (set as 100) (MG-63 cells; 0.33 μM compound)	relative absorbance (MTT) relative to control (set as 100) (MG-63 cells; 1 μM compound)	relative absorbance (MTT) relative to control (set as 100) (MG-63 cells; 3 μM compound)	inhibition at 0.1 µM [2] [%]	inhibition at 0.3 µM [2] [%]	inhibition at 1 µM [2] [%]	inhibition at 3 µM [2] [%]	also measured
40.7	CO/C=C(/C(=O)OC)c1ccc(Cl)cc1COc1cccc(N2CCOCC2)c1 [Compound No. 386, (E)-methyl-2-[2-((3-morpholinophenoxy)methyl)-4-chlorophenyl]-3-methoxyacrylate]	101	69	68	100	100	100	100	
57.4 ± 2.3	CO/C=C(/C(=O)OC)c1ccccc1COc1cccc(CN2CCOCC2)c1 [Compound No. 404, (E)-methyl-2-[2-((3-(morpholinomethyl)phenoxy)-methyl)phenyl]-3-methoxyacrylate]	83	92	94		9	63	100	AUC (area under the curve of blood concentration versus time) [3]: 97.2 ± 14.8 µg·h/mL; clearance [3]: 0.0567 mL/min; Half-life [3]: 612 ± 114 min; Vd [3]: 0.0462 ± 0.0064 L/kg
24.9	CO/C=C(/C(=O)OC)c1ccccc1COc1cccc(N2CCCC2)n1 [Compound No. 415, (E)-methyl-2-[2-((6-(pyrrolidin-1-yl)pyridin-2-yloxy)-methyl)phenyl]-3-methoxyacrylate]				5	57	100	100	AUC (area under the curve of blood concentration versus time) [3]: 176.4 ± 32.9 µg·h/mL; clearance [3]: 0.0317 mL/min; Half-life [3]: 647 ± 96.6 min; Vd [3]: 0.027 ± 0.0012 L/kg
42.7 ± 2.1	CO/C=C(/C(=O)OC)c1ccccc1COc1ccc(N(C)CC(C)C)cc1F [Compound No. 426, (E)-methyl-2-[2-((4-(N-isobutyl-N-methylamino)-2-fluorophenoxy)methyl)phenyl]-3-methoxyacrylate]				25	100	100	100	
	CO/C=C(/C(=O)OC)c1ccccc1COc1ccc(C2OCCCO2)cc1 [compound 161]								Half-life [1]: 45.6 min; One-hour stability [1]: 40%; Osteoclast formation inhibitory effects (%) ([2]; 0.3 μM): 19%; Osteoclast formation inhibitory effects (%) ([2]; 1.0 μM): 100%; Osteoclast formation inhibitory effects (%) ([2]; 3.0 μM): 100%; Reduction (%) of the resorption pit area of osteoclasts (osteoclasts; 0.3 uM): 94%; Reduction (%) of the resorption pit area of osteoclasts (osteoclasts; 1 uM): 100%; Reduction (%) of the resorption pit area of osteoclasts (osteoclasts; 3 uM): 100%
	CO/C=C(/C(=O)OC)c1ccccc1COc1cccc(C(C)F)c1 (centres unmarked) [compound 169]								LD50 (rats; PO): >1000 mg/kg body weight; LD50 (rats; SC): 10 mg/kg body weight
107 ± 18.6	CO/C=C(/C(=O)OC)c1ccccc1COc1cccc(N2CCN(C)CC2)c1 [compound 391]	104	99	111		4	50	100	
55.5 ± 12	CO/C=C(/C(=O)OC)c1ccc(Cl)cc1COc1ccc(N2CCOCC2)cn1 [compound 394]	113	105	110	0	98	100	100	
43 ± 1.8	CO/C=C(/C(=O)OC)c1ccccc1COc1ccc(N2CCCCC2)cc1 [compound 399]	96	76	65	0	70	100	100	
43.9	CO/C=C(/C(=O)OC)c1ccccc1COc1ccc(N2CCCCC2)c(F)c1 [compound 416]				0	75	100	100	
